Results taken from patent US20090023667A1 (priority 2005, published 2009).

The compounds below were run on Pyricularia oryzae (assay: not given). Conditions: in vivo.
Assay type: in vivo

**Q.** For Cc1ccc(C(=O)NCC(NC(=O)OCCF)C(C)C)cc1 (stereo not shown) [Compound 2], which “Effect (class of control value)” value is on record?
**A.** The value was “A (key: A: Not less than 80%; B: Not less than 50% to less than 80%; C: Less than 50%)”.

**Q.** For Cc1ccc(C(=O)NCC(NC(=O)OCCCl)C(C)C)cc1 (stereo not shown) [Compound 3], which “Effect (class of control value)” value is on record?
**A.** Its value is “A (key: A: Not less than 80%; B: Not less than 50% to less than 80%; C: Less than 50%)”.

**Q.** For Cc1ccc(C(=O)NCC(NC(=O)OCCBr)C(C)C)cc1 (stereo not shown) [Compound 4], which “Effect (class of control value)” value is on record?
**A.** The value was “A (key: A: Not less than 80%; B: Not less than 50% to less than 80%; C: Less than 50%)”.

**Q.** For Cc1ccc(C(=O)NCC(NC(=O)OCCI)C(C)C)cc1 (stereo not shown) [Compound 5], which “Effect (class of control value)” value is on record?
**A.** Its value is “A (key: A: Not less than 80%; B: Not less than 50% to less than 80%; C: Less than 50%)”.

**Q.** With Cc1ccc(C(=O)NCC(NC(=O)OC(CF)CF)C(C)C)cc1 (stereo not shown) [Compound 9] as the compound, how does the “Effect (class of control value)” value read?
**A.** The value was “A (key: A: Not less than 80%; B: Not less than 50% to less than 80%; C: Less than 50%)”.

**Q.** With Cc1ccc(C(=O)NCC(NC(=O)OCCCCl)C(C)C)cc1 (stereo not shown) [Compound 10] as the compound, how does the “Effect (class of control value)” value read?
**A.** The value was “A (key: A: Not less than 80%; B: Not less than 50% to less than 80%; C: Less than 50%)”.

**Q.** How did the “Effect (class of control value)” value turn out when Cc1ccc(C(=O)NCC(NC(=O)OC(CBr)CBr)C(C)C)cc1 (stereo not shown) [Compound 11] was run?
**A.** Its value is “B (key: A: Not less than 80%; B: Not less than 50% to less than 80%; C: Less than 50%)”.

**Q.** Cc1ccc(C(=O)NCC(NC(=O)OCC(F)(F)C(F)(F)C(F)(F)F)C(C)C)cc1 (stereo not shown) [Compound 13] was tested. Which “Effect (class of control value)” value did it give?
**A.** The value was “A (key: A: Not less than 80%; B: Not less than 50% to less than 80%; C: Less than 50%)”.

**Q.** Cc1ccc(C(=O)NCC(NC(=O)OCCC(F)(F)C(F)(F)C(F)(F)C(F)(F)F)C(C)C)cc1 (stereo not shown) [Compound 14] was tested. Which “Effect (class of control value)” value did it give?
**A.** Its value is “B (key: A: Not less than 80%; B: Not less than 50% to less than 80%; C: Less than 50%)”.

**Q.** For Cc1ccc(C(=O)NCC(NC(=O)OC2CCCCC2F)C(C)C)cc1 (stereo not shown) [Compound 16], which “Effect (class of control value)” value is on record?
**A.** The value was “A (key: A: Not less than 80%; B: Not less than 50% to less than 80%; C: Less than 50%)”.

**Q.** Which “Effect (class of control value)” value does the source give for Cc1ccc(C(=O)NCC(NC(=O)OCC(F)(F)F)C2CCCC2)cc1 (stereo not shown) [Compound 36] here?
**A.** Its value is “A (key: A: Not less than 80%; B: Not less than 50% to less than 80%; C: Less than 50%)”.

**Q.** With CCC(CC)C(CNC(=O)c1ccc(C)cc1)NC(=O)OCC(F)(F)F (stereo not shown) [Compound 39] as the compound, how does the “Effect (class of control value)” value read?
**A.** Its value is “A (key: A: Not less than 80%; B: Not less than 50% to less than 80%; C: Less than 50%)”.

Same assay, conditions: rice blast; sprayed at 60 ppm active ingredient; lesions after 7 days

**Q.** With Cc1ccc(C(=O)NC(CNC(=O)OCC(Cl)(Cl)Cl)C(C)C)cc1 (stereo not shown) [Compound 7, N-(2,2,2-trichloroethyloxycarbonyl)-N′-(4-methylbenzoyl)-3-methyl-1,2-butanediamine] as the compound, how does the “Effect (class of control value)” value read?
**A.** Its value is “A (Not less than 80%)”.

**Q.** For Cc1ccc(C(=O)NC(CNC(=O)OC(C(F)(F)F)C(F)(F)F)C(C)C)cc1 (stereo not shown) [Compound 8, N-(1,1,1,3,3,3-hexafluoro-2-propyloxycarbonyl)-N′-(4-methylbenzoyl)-3-methyl-1,2-butanediamine], which “Effect (class of control value)” value is on record?
**A.** The value was “A (Not less than 80%)”.

**Q.** Cc1ccc(C(=O)NCC(NC(=O)Oc2ccc3ccccc3c2)C(C)C)cc1 (stereo not shown) [Formula (16), reference compound] was tested. Which “Effect (class of control value)” value did it give?
**A.** Its value is “C (Less than 50%)”.

**Q.** CSCC(C)OC(=O)NC(CNC(=O)c1ccc(C)cc1)C(C)C (stereo not shown) [Formula (17), reference compound] was tested. Which “Effect (class of control value)” value did it give?
**A.** The value was “C (Less than 50%)”.

These compounds were tested on Pyricularia oryzae (assay: whole plant or invertebrate). Conditions: 300 ppm.
Assay type: in vivo

**Q.** Which Control value does the source give for CCOP(=O)(Sc1ccccc1)Sc1ccccc1 [EDDP, reference compound] here?
**A.** Its Control value is 97.

Same assay, conditions: Pyricularia oryzae, 168 h, read-out: Control value

**Q.** CC(C)CC(C)c1sccc1NC(=O)c1cn(C)nc1C(F)(F)F (racemic) [Penthiopyrad, (RS)—N-[2-(1,3-dimethylbutyl)thiophene-3-yl]-1-methyl-3-trifluoromethyl-1H-pirazole-4-carboxamide, reference compound] was tested. Which pest or weed control at 200 ppm did it give?
**A.** The pest or weed control at 200 ppm was 95%.

**Q.** CC(=O)Oc1c(C)c(C)nc2c(F)cc(C(C)(C)C)cc12 [Compound 105, reference compound] was tested. Which pest or weed control at 300 ppm did it give?
**A.** Its pest or weed control at 300 ppm is 98%.
